Like-named read-outs stand apart in the source and are kept apart here.
Assays:
[1] = molecular target: T1, Adenosine A1 receptor (human) membrane (Homo sapiens, UniProt P30542); assay: Determination of competitive inhibition constant (Ki) for adenosine A1 receptor, [3H]-DPCPX radioligand; type: binding; conditions: 1.0 nM [3H]-DPCPX
T1 construct: purchased PerkinElmer ES-010-M400UA
T1 sequence (P30542 1-326): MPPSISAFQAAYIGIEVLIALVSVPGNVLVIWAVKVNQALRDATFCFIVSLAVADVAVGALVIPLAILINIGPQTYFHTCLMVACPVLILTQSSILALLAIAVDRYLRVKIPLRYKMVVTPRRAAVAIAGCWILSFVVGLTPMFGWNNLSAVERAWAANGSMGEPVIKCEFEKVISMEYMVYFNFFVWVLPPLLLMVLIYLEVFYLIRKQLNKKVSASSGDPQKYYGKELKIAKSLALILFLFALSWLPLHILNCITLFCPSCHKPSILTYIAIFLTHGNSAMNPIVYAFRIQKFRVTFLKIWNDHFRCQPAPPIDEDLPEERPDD
Method: (§1) Test Example 1: Determination of Competitive Inhibition Constant (Ki) for Adenosine A1 and A2a Receptors
[^3H]-DPCPX (PerkinElmer, NET974250UC),
Adenosine A1 receptor (human) membrane (PerkinElmer, ES-010-M400UA),
assay buffer for A1 (25 mM HEPES, 5 mM MgCl2, 1 mM CaCl2, 100 mM NaCl, pH7.4), used to dilute adenosine A1 receptor (human) membrane and [^3H]-DPCPX;
wash buffer for A1 (25 mM HEPES, 5 mM MgCl2, 1 mM CaCl2, 100 mM NaCl, pH7.4);
(§2) Adenosine A1 receptor membrane was diluted to 0.025 μg/μl with assay buffer for A1, and Adenosine A2a receptor membrane was diluted to 0.05 μg/μl with assay buffer for A2a, so as to obtain Adenosine A1 receptor membrane dilution and Adenosine A2a receptor membrane dilution.
(§3) The compound to be tested and CGS-15943 were diluted with DMSO, and 1 W of the compound to be tested, high value control (0.5% DMSO), low value control (1000 nM CGS-15943) were added to a 96-well plate, and 100 W of Adenosine A1 receptor membrane dilution (containing 2.5 μg of membrane) was added to each well of the 96-well plate to obtain A1 detection plate; following the same steps, 100 W of Adenosine A2a receptor membrane dilution (containing 5.0 μg membrane) was added to each well of the 96-well plate to obtain A2a detection plate.
(§4) To the A1 detection plate, 100 μl of radioisotope-labeled ligand [^3H]-DPCPX (diluted with assay buffer for A1, working concentration of which was 1.0 nM) was added; and to the A2a detection plate, 100 μl of radioisotope-labeled ligand [^3H]-CGS-21680 (diluted with assay buffer for A2a, working concentration of which was 6.0 nM) was added. The A1 and A2a detection plates were sealed with tape, and incubated at room temperature for 1 h and 2 h, respectively.
(§5) Unifilter-96 GF/C filter plates were prepared, 50 μl of 0.3% PEI was added to each well of the Unifilter-96 GF/C filter plates, and the resulting filter plates were incubated at room temperature for not less than 0.5 h.
(§6) After the incubation was completed, the reaction solution was transferred from the A1 detection plate and the A2a detection plate to two Unifilter-96 GF/C filter plates, and washed with pre-cooled wash buffer for A1 and wash buffer for A2a, and then the filter plates were dried, sealed at bottom, then 50 W of Microscint 20 fluid scintillation cocktail was added, and then the filter plates were sealed at top, and counted by MicroBeta2 Reader.
(§7) Inhibition rate %=100−(signal value of test well−signal average value of low value control)/(signal average value of high value control−signal average value of low value control)*100.
(§8) EXCEL XLfit was used to fit IC50.
(§9) The calculation formula for competitive inhibition constant (Ki) was: Ki=IC50/(1+concentration of isotope-labeled ligand/Kd), wherein Kd was the dissociation constant of the isotope-labeled ligand.

[2] = molecular target: T2, Adenosine A2a receptor (human) membrane (Homo sapiens, UniProt P29274); assay: Determination of competitive inhibition constant (Ki) for adenosine A2a receptor, [3H]-CGS-21680 radioligand; type: binding; conditions: for Ki(A1)/Ki(A2a): selectivity ratio A1 over A2a
T2 construct: purchased PerkinElmer RBHA2AM400UA
Method: as §1
Adenosine A2a receptor (human) membrane (PerkinElmer, RBHA2AM400UA),
assay buffer for A2a (50 mM Tris-HCl, 10 mM MgCl2, 1 mM EDTA, pH7.4), used to dilute adenosine A2a receptor (human) membrane (human origin) and [^3H]-CGS-21680; and
wash buffer for A2a (50 mM Tris-HCl, 154 mM NaCl, pH7.4).
as §2, §3, §4, §5, §6, §7, §8, §9

[3] = human A2a receptor membrane, 6.0 nM [3H]-CGS-21680, read-out: Ki(A2a)

T2 sequence (P29274 whole entry): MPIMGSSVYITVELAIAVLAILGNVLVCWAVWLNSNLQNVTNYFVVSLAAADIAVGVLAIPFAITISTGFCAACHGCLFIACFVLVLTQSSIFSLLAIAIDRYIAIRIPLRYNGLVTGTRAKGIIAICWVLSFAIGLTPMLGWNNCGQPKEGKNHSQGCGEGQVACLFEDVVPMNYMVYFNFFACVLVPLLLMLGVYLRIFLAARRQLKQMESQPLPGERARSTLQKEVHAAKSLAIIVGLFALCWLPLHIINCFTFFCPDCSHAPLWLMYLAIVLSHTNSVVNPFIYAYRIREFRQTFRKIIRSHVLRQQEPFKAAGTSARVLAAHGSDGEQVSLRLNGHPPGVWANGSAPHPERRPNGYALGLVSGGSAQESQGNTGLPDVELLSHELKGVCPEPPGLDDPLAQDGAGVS

Ki [1] | Ki [2, 3] | Ki(A1)/Ki(A2a) [2] | Compound | Ki [2]
0.538 µM | 0.0126 µM | 42.7 | Cc1ncnc2ccc(-c3cnc(NC(=O)N4CCO[C@@H](C)C4)nc3-c3ccc(F)cc3)cc12 [Compound 34, (S)-N-(4-(4-fluorophenyl)-5-(4-methylquinazolin-6-yl)pyrimidin-2-yl)-2-methylmorpholine-4-carboxamide] | 
1.23 µM | 0.0037 µM | 331.8 | Cc1ncnc2ccc(-c3cnc(NC(=O)N(C)Cc4ccccn4)nc3-c3ccc(F)cc3)cc12 [Compound 9, 3-(4-(4-fluorophenyl)-5-(4-methylquinazolin-6-yl)pyrimidin-2-yl)-1-methyl-1-(pyridine-2-methyl)urea] | 
3.33 µM | 0.0277 µM | 120.1 | COCCN(C)C(=O)Nc1ncc(-c2ccc3ncnc(C)c3c2)c(-c2ccc(F)cc2)n1 [Compound 31, 3-(4-(4-fluorophenyl)-5-(4-methylquinazolin-6-yl)pyrimidin-2-yl)-1-(2-methoxyethyl)-1-methylurea] | 
3.07 µM | 0.0189 µM | 162.5 | Cc1cc(-c2cnc(NC(=O)N3CCC(C#N)CC3)nc2-c2ccc(F)cc2)cc(Cl)n1 [Compound 18, N-(5-(2-chloro-6-methylpyridin-4-yl)-4-(4-fluorophenyl)pyrimidin-2-yl)-4-cyanopiperidine-1-carboxamide] | 
1.59 µM | 0.0066 µM | 240.7 | Cc1cc(Cl)cc(-c2cnc(NC(=O)N3CCC(N4CCCCC4)CC3)nc2-c2ccc(C)o2)c1 [Compound 22, N-(5-(3-chloro-5-methylphenyl)-4-(5-methylfuran-2-yl)pyrimidin-2-yl)-[1,4′-bipiperidine]-1′-carboxamide] | 
0.205 µM | 0.0046 µM | 44.5 | Cc1cc(-c2cnc(N)nc2-c2ccc(F)cc2)cc(Cl)n1 [Compound 17, 5-(2-chloro-6-methylpyridin-4-yl)-4-(4-fluorophenyl)pyrimidin-2-amine] | 
1.87 µM | 0.0147 µM | 126.9 | Cc1cc(-c2cnc(NC(=O)N3CCCCC3)nc2-c2ccc(F)cc2)cc(Cl)n1 [Compound 35, N-(5-(2-chloro-6-methylpyridin-4-yl)-4-(4-fluorophenyl)pyrimidin-2-yl) piperidine-1-carboxamide] | 
3.25 µM | 0.0096 µM | 339.0 | Cc1ncnc2ccc(-c3ccc(N)nc3-c3ccc(F)cc3)cc12 [Compound 1, 6-(4-fluorophenyl)-5-(4-methylquinazolin-6-yl)pyridin-2-amine] | 
4 µM | 0.0099 µM | 403.8 | Cc1cc(-c2nnc(NC(=O)N3CCC(N4CCCCC4)CC3)nc2-c2ccc(C)o2)cc(Cl)n1 [Compound 26, N-(6-(2-chloro-6-methylpyridin-4-yl)-5-(5-methylfuran-2-yl)-1,2,4-triazin-3-yl)-[1,4′-bipiperidine]-1′-carboxamide] | 
1.41 µM | 0.0131 µM | 107.4 | Cc1cc(-c2cnc(NC(=O)N3CCO[C@H](C)C3)nc2-c2ccc(F)cc2)cc(Cl)n1 [Compound 38, (R)-N-(5-(2-chloro-6-methylpyridin-4-yl)-4-(4-fluorophenyl)pyrimidin-2-yl)-2-methylmorpholine-4-carboxamide] | 
> 7.92 µM | 0.0143 µM | >553.6 | Cc1ncnc2ccc(-c3cnc(NC(=O)NCc4ccccn4)nc3-c3ccc(F)cc3)cc12 [Compound 6, 1-(4-(4-fluorophenyl)-5-(4-methylquinazolin-6-yl)pyrimidin-2-yl)-3-(pyridine-2-methyl)urea] | 
0.217 µM | 0.00513 µM | 42.4 | Cc1ccnc2ccc(-c3c(-c4ccc(F)cc4)nc(NC(=O)N4CCOCC4)nc3C3CC3)cc12 [Compound 47, N-(4-cyclopropyl-6-(4-fluorophenyl)-5-(4-methylquinolin-6-yl)pyrimidin-2-yl)morpholine-4-carboxamide] | 
5.31 µM | 0.0081 µM | 656.1 | Cc1cc(-c2cnc(NC(=O)N(C)Cc3ccccn3)nc2-c2ccc(F)cc2)cc(Cl)n1 [Compound 14, 3-(5-(2-chloro-6-methylpyridin-4-yl)-4-(4-fluorophenyl)pyrimidin-2-yl)-1-methyl-1-(pyridin-2-ylmethyl)urea] | 
1.78 µM | 0.009 µM | 197.5 | Cc1cc(Cl)cc(-c2nnc(NC(=O)N3CCC(N4CCCCC4)CC3)nc2-c2ccc(C)o2)c1 [Compound 28, N-(6-(3-chloro-5-methylphenyl)-5-(5-methylfuran-2-yl)-1,2,4-triazin-3-yl)-[1,4′-bipiperidine]-1′-carboxamide] | 
0.814 µM | 0.011 µM | 74.0 | Cc1ncnc2ccc(-c3cnc(NC(=O)N4C[C@@H](C)O[C@@H](C)C4)nc3-c3ccc(F)cc3)cc12 [Compound 39, (2R,6S)-N-(4-(4-fluorophenyl)-5-(4-methylquinazolin-6-yl)pyrimidin-2-yl)-2,6-dimethylmorpholine-4-carboxamide] | 
1.32 µM | 0.0098 µM | 134.5 | COC1CCN(C(=O)Nc2ncc(-c3ccc4ncnc(C)c4c3)c(-c3ccc(F)cc3)n2)CC1 [Compound 13, N-(4-(4-fluorophenyl)-5-(4-methylquinazolin-6-yl)pyrimidin-2-yl)-4-methoxypiperidine-1-carboxamide] | 

Compound | Ki [1] | Ki [2, 3] | Ki(A1)/Ki(A2a) [2] | Ki [2]
Cc1ncnc2ccc(-c3ccc(NC(=O)N(C)Cc4ccccn4)nc3-c3ccc(F)cc3)cc12 [Compound 29, 3-(6-(4-fluorophenyl)-5-(4-methylquinazolin-6-yl)pyridin-2-yl)-1-methyl-1-(pyridine-2-methyl)urea] | 5.03 µM |  | 425.9 | 0.0118 µM
Cc1ncnc2ccc(-c3cnc(NC(=O)N(C)c4ccccc4)nc3-c3ccc(F)cc3)cc12 [Compound 12, 3-(4-(4-fluorophenyl)-5-(4-methylquinazolin-6-yl)pyrimidin-2-yl)-1-methyl-1-phenylurea] | 1.21 µM | 0.0088 µM | 137.6 | 
Cc1ncnc2ccc(-c3cc(F)c(NC(=O)N(C)Cc4ccccn4)nc3-c3ccc(F)cc3)cc12 [Compound 4, 3-(3-fluoro-6-(4-fluorophenyl)-5-(4-methylquinazolin-6-yl)pyridin-2-yl)-1-methyl-1-(pyridin-2-ylmethyl)urea] | 5.68 µM |  | 417.3 | 0.0136 µM
Cc1ncnc2ccc(-c3nnc(NC(=O)N(C)Cc4ccccn4)nc3-c3ccc(F)cc3)cc12 [Compound 24, 3-(5-(4-fluorophenyl)-6-(4-methylquinazolin-6-yl)-1,2,4-triazolin-3-yl)-1-methyl-1-(pyridine-2-methyl)urea] | 3.73 µM |  | 139.1 | 0.0268 µM
Cc1ncnc2ccc(-c3cnc(N)nc3-c3ccc(F)cc3)cc12 [Compound 3, 4-(4-fluorophenyl)-5-(4-methylquinazolin-6-yl)pyrimidin-2-amine] | 0.178 µM | 0.0016 µM | 111.3 | 

— patent US20210395226A1, “SUBSTITUTED ARYL COMPOUND AND PREPARATION METHOD THEREFOR AND USE THEREOF” (SICHUAN KELUN-BIOTECH BIOPHARMACEUTICAL CO., LTD., priority 2018, published 2021)
